# Measured values from patent US20230002756A1, “High Performance Platform for Combinatorial Genetic Screening” (THE TRUSTEES OF THE UNIVERSITY OF PENNSYLVANIA, priority 2019, published 2023).
# “Also recorded” adds a separate entry of the source.
# Columns and labels:
# [1] = tested on: HEK293T d2GFP reporter line; experiment: GFP disruption assay; format: cell-based, human; details: for gene editing activity / efficiency (GFP reporter disruption): HEK293T GFP reporter cell line
# From the text: GFP disruption assay. HEK293T cells were first lentivirally transduced with a destabilized GFP (d2GFP) reporter (derived from Addgene #14760). The resulting HEK293T d2GFP reporter line was then transiently transfected with indicated AsCas12a vector and a vector expressing GFP-targeting crRNA. This d2GFP HEK293T reporter line was used to evaluate the knockout efficiency of seven Addgene-available Cas12a systems (Butyrivibrio sp., Thiomicrospira sp. XS5, Moraxella bovoculi, Prevotella bryantii, Bacteroidetes oral, Lachnospiraceae bacterium, and Acidaminococcus). In addition, AsCas12a vector contained 1, 2, 4, or 6 SV40 or c-Myc NLS cloned into either the N- or C-terminus. The crRNA vector contained an expression marker for mCherry for successful transfection tracking. Cells were cultured for 3 days and subjected to flow cytometry to measure knockdown of GFP using the Guava Easycyte 10 HT instrument (Millipore). Percent GFP disruption is plotted. Two independent GFP-targeting crRNA are presented.
# K562 cells = experiment: Competition-based cellular proliferation assay; format: cell-based
# From the text: Competition-based cellular proliferation assays. Indicated AsCas12a-expressing cell lines were infected with a lentivirus (pRG212) encoding crRNA, targeting essential genes or known cancer dependencies, linked to a GFP reporter, to track successful transduction, at a multiplicity of infection (MOI) of around 0.2-0.5. The percentage of crRNA-positive (GFP-positive) cell population was monitored over time using the Guava Easycyte 10 HT instrument (Millipore). To assess the impact of a specific single-crRNA or dual-crRNA on cellular proliferation, final time point GFP % was divided by initial time point GFP % to calculate the negative selection fold-change of the crRNA-positive cell population.
# To address the low knockout efficiency in mammalian cells, the AsCas12a system was subjected to three levels of optimization. In order to evaluate the knockout efficiency of the system, AsCas12a and its crRNA were expressed using a two-vector lentiviral expression strategy and conducted a competition-based cellular proliferation assay, a reliable proxy for dropout screening (FIG. 1A, 1B). crRNAs targeting known essential genes were designed, including replication protein PCNA and cyclin-dependent kinase CDK1. AsCas12a knockout efficiency was then assessed by measuring the negative selection strength of essential gene-targeting crRNAs in a 16-day time-course. […]
Substance,gene editing activity / efficiency (GFP reporter disruption) [1],knockout efficiency relative to SpCas9 ([1]; in human cells),"knockout efficiency (K562 cells; crRNAs targeting essential genes PCNA and CDK1, 16-day time-course)",effect on cellular proliferation (toxicity to the cells) (K562 cells; non-targeting crRNAs and crRNAs targeting introns of PCNA and CDK1)
"AsCas12a: Acidaminococcus Cas12a, wild type RNA-programmable DNA endonuclease",high gene editing activity,approximately one third,,
"enAsCas12a: AsCas12a with E174R and S542R mutations, used with 6xNLS and dual-DR crRNA; the improved/engineered Cas12a system",comparable to Cas9,,enhances knockout efficiency,no obvious effect on cellular proliferation; also recorded: does not significantly affect cellular proliferation
